Reference: patent publication US6159705A, “Recombinant yeast cells for identifying receptor effectors” (Cadus Pharmaceutical Corporation, priority 1997, dated 2000)

Assays:
FPRL-1 = settings: uM concentrations; cited from earlier work
[1] = target: T1, S. cerevisiae pheromone receptor, Ste2p (Saccharomyces cerevisiae, UniProt D6VTK4); assay: Bar1 plate assay, agonist-induced Ste2p activation; format: cell-based
T1 sequence (D6VTK4 1-431): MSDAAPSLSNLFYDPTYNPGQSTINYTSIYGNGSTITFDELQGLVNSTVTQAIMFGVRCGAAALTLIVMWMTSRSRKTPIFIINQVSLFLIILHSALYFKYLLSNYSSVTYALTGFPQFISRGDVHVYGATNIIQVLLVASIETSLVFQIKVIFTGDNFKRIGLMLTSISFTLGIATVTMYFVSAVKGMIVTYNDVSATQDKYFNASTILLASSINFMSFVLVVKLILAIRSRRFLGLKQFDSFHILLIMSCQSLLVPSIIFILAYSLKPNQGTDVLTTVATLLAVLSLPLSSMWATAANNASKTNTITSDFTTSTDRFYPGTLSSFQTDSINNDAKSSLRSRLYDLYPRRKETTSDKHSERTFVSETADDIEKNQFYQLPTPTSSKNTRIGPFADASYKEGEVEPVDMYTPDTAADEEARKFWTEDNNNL
Experimental: The cells were removed from the culture by filtration.
Assay plates were prepared as follows. CY 579 cells were grown overnight in YEPD medium.
Since CY 579 lacks the BAR1 gene, it is super-sensitive to α-factor causing its growth to be arrested on the YEPD+α-factor plate. If the conditioned media applied to the lawn contains Bar1p activity, the α-factor in that region is destroyed, allowing growth of the CY 579 cells.
First, the gene encoding the S. cerevisiae Gα, GPA 1, was reintroduced into the genome of CY 8034 (MATa gpa1*1162 far1-1 ste2*1154 ste14::trp1::LYS2 fus1-HIS3 ura3 trp1 leu2 lys2 his3 ade2-1 met1) by transformation with an integrating plasmid encoding GPA1 (Cadus 3907), creating CY 11364. Next, the gene encoding the S. cerevisiae RGS protein, SST2, was disrupted in this strain to create CY 11645. Since Sst2p is involved in desensitization of the pheromone response pathway, its disruption results in increased signaling through the pathway (Reviewed by Sprague and Thorner in Molecular and Cellular Biology of the Yeast Saccharomyces. Vol. 2. 1992).
A high copy number Ste2 expression plasmid was constructed as follows. […]
(to OD600 0.4). […] A standard curve was also done with each experiment (described in Example 1) to quantitate the results.

Ste2p = target: T2, Ste2p (Saccharomyces cerevisiae, UniProt D6VTK4); assay: Pho5p acid phosphatase activity in strains with PHO4/STE12 chimerae (Ste2p activation); format: cell-based, S. cerevisiae
T2 construct: CY 1638 (MATa far1*1442 tbt1-1 FUS1-HIS3 trp1ura3 leu2 his3 suc2); endogenous in cells; host or cells: S. cerevisiae CY 11643 (MATa, pho3 and pho4 disrupted, from CY 1638 via CY 9788), carrying PHO4/STE12 chimera plasmids or Cadus 4129
T2 sequence (D6VTK4 1-431): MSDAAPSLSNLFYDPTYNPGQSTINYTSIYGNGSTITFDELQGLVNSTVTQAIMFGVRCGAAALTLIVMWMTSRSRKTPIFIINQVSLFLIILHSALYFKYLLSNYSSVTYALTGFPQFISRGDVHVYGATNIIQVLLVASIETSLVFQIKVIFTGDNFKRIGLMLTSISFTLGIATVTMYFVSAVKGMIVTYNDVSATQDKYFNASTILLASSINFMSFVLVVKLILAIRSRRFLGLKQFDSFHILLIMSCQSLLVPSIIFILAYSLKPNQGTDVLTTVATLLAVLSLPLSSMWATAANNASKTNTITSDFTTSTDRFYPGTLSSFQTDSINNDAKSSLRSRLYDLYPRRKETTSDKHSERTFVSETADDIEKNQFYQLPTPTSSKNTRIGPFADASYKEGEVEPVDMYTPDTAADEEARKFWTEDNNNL
Experimental: were used to amplify the KanMX2 gene. The amplification product was flanked by sequences corresponding to the 5' and 3' ends of the PHO4 gene. […] Transformants were selected on YEPD+geneticin (200 μg/ml) plates. […] Cells were patched onto YEPD or phosphate-depleted YEPD plates and allowed to grow overnight. For each plate, a mixture of 2 ml of molten 1% agarose in 50 mM NaAc pH 4.0, 700 μl H2 O, and 300 μl α-napthyl acid phosphate (50 mg/ml) was prepared and applied to the plate. Then 1 ml of D-dianisidine fast blue salt B (50 mg/ml in 50 mM NaAc pH 4.0) was poured onto the plate. The degree of color development is a measure of acid phosphatase activity produced by the patch of cells.
The PHO3 gene also encodes a secreted acid phosphatase, but its expression is not regulated by Pho4p. […] Since this gene is not essential and its presence would require that all assays be done under conditions of phosphate starvation, it was disrupted. Primers
were used to amplify sequences in the 3' untranslated region of the PHO3 gene. The amplification product which bears an EcoRI site ate its 5' end and an XbaI site at its 3' end was digested with EcoRI and XbaI and gel purified.
Cells were grown overnight in SD TRP- media. […] The cultures were split in half (2.5 ml each) and α-factor (25 μg) was added to one aliquot. After 2.5 hours at 30° C., the cells were collected by centrifugation, washed 3 times with H2 O, once with 50 mM NaAc pH 4.0, and resuspended in 250 μl 50 mM NaAc pH 4.0. […] 100 μl cells were added to 400 μl p-nitrophenyl phosphate (1 mg/ml in 50 mM NaAc pH 4.0). After 15 min at room temperature, 720 μl saturated NaCO3 was added to stop the reaction. The cells were removed by centrifugation and the optical density at 420 nm was determined.

human C5a receptor [2] = assay: Autocrine activation of pheromone pathway, growth read-out (fus1-HIS3); format: cell-based
Excerpt: The strain used for this analysis, CY455 (MATα tbt1-1 ura3 leu2 trp1 his3 fus1-HIS3 can1 ste14::TRP1 ste3* 1156) contains the following significant modifications. A pheromone inducible HIS3 gene, fus1-HIS3, is integrated at the Fus1 locus. A hybrid gene containing sequence encoding the first 41 amino acids of GPA1 (the yeast Gα subunit) fused to sequence encoding human Gαi2a (minus codons for the N-terminal 33 amino acids) replaces GPA1 at its normal chromosomal location. The yeast STE14 gene is disrupted to lower the basal level of signaling through the pheromone response pathway. The yeast a-factor receptor gene, STE3, is deleted. The last two modifications are probably not essential, but appear to improve the signal-to-noise ratio.
CY455 (MATα tbt1-1 ura3 leu2 trp1 his3 fus1-HIS3 can1 ste14::TRP1 ste3 * 1156) was transformed with the following plasmids:
Cadus 1303+Cadus 1297=Receptor^+ Ligand^+ =(R+L+)
Three colonies were picked from each transformation and grown overnight in media lacking leucine and uracil, at pH 6.8 with 25 mM PIPES (LEU URA pH6.8 with 25 mM PIPES). This media was made by adding 0.45 ml of sterile 1 M KOH and 2.5 ml of sterile 1M PIPES pH 6.8 to 100 ml of standard SD LEU- URA- media. […] The optical density at 600 nm of a 1/20 dilution of these cultures was determined and the cultures were diluted into 25 mM PIPES pH 6.8 to a final OD600 of 0.2. […]

human C5a receptor [3] = assay: Autocrine activation, fus1-lacZ beta-galactosidase; format: cell-based; settings: R+L+ cells
Experimental: CY878 (MATα tbt1-1 fus1-HIS3 caN1 ste14::trp1::LYS2 ste3* 1156 gpal(41)-Gαi2) was used as the starting strain for these experiments. This strain is a trp1 derivative of CY455. The transformants for this experiment contained CADUS 1584 (pRS424-fus1-lacZ) in addition to the receptor and ligand plasmids. Four strains were grown overnight in SD LEU URA TRP pH6.8 with 50 mM PIPES to an OD600 of less than 0.8. Assay of β-galactosidase activity can be done useing methods known in the art (Guarente 1983).

C5a receptor = settings: data derived from mammalian cells; read-out: binding constant of C5a to its receptor; cited from earlier work
induced HL60 cells = assay: Competition with radiolabeled C5a for binding on induced HL60 cells; settings: C5a expressed in yeast

CSCC[C@H](NC=O)C(=O)N[C@@H](CC(C)C)C(=O)N[C@@H](Cc1ccccc1)C(=O)O [f-Met-Leu-Phe]
binding to fibroblasts transfected with FPRL-1 cDNA (FPRL-1): weak binding

α-factor
increase in Bar1p activity ([1]; cells expressing Ste2p (CY 11728), α-factor 10 μg, 2 h, 30° C.): greater than 8 fold | Bar1p activity in conditioned media ([1]; cells lacking the Ste2p expression plasmid (CY 11727)): Little or no Bar1p activity was detected | acid phosphatase activity inducible by pheromone (Ste2p; all strains expressing Pho4/Ste12 chimerae): pheromone-inducible acid phosphatase activity was observed | change of acid phosphatase activity on exposure to α-factor (Ste2p; cells expressing only the Pho4p DNA binding domain (CY11643+Cadus 4129)): not increased by exposure to α-factor | Pho5p induction ratio (Ste2p; other chimerae with very low constitutive activity): 5-10 fold | Pho5p induction ratio (Ste2p; two chimerae with high constitutive activity (printed Cadus 4184 and Cadus 4185)): 2-4 fold

B1: C5a: Human C5a is a 74 amino acid polypeptide that derives from the fifth component of complement (protein, UniProt P01031 678-751, looked up)
C5a anaphylatoxin: TLQKKIEEIAAKYKHSVVKKCCYDGACVNNDETCEQRAARISLGPRCIKAFTECCVVASQLRANISHKDMQLGR
modifications: C5a anaphylatoxin
notes: Human C5a is a 74 amino acid polypeptide that derives from the fifth component of complement
growth on selective plates lacking histidine (human C5a receptor [2]; R+L+ strain, C5a expressed by the cell): show growth on the selective plates | aminotriazole concentration up to which the R+L+ strain will grow (human C5a receptor [2]; highest concentration tested): up to 5 mM | autocrine stimulation and β-galactosidase activity (human C5a receptor [3]): results in autocrine stimulation and β-galactosidase activity | Kd (C5a receptor): 1 nM | competition for binding with radiolabeled C5a (induced HL60 cells): shown to compete for binding
